From US20220389061A1, “IMMUNOMODULATORS” (priority 2019, published 2022)
Starred links: 1 amine or outer side, 2 acyl side, 3 side chain; linkers in the order of their positions; H or OH if unused. Positions of bridges follow the written chain, without caps; N, C: chain ends. Non-standard residues stand in square brackets, D forms with d. Residues, ends and D or L forms follow the SMILES beside them. Groups on a side chain read outwards from the residue. *: point of attachment. Trp(1-CH2COOH) = N[C@@H](Cc1cn(CC(=O)O)c2ccccc12)C(=O)O; Benzofuran(2-CO) = O=C(c1cc2ccccc2o1)*; X75 = S=C(Nc1ccc(C2CC2)c2ccccc12)*; Hyp = O=C(O)[C@@H]1C[C@@H](O)CN1; X27 = Cc1cc([N+](=O)[O-])ccc1N*; X78 = S=C(Nc1c(Cl)cc(Cl)cc1Cl)*; X80 = S=C(Nc1ccc(-n2cccn2)cc1)*; X55 = COc1cc(NC(=S)*)cc(OC)c1; X60 = Cc1cc2cc(NC(=S)*)ccc2o1; NMeNle = CCCC[C@H](NC)C(=O)O; X74 = Cc1cc(C)c(N*)c(C)c1; NMeA = CN[C@@H](C)C(=O)O; X71 = c1cc2c(cc1N*)OCCO2; βNA = c1ccc2cc(N*)ccc2c1; Dab = NCC[C@H](N)C(=O)O; Dap = NC[C@H](N)C(=O)O; CO = O=C([*:1])[*:2]

target: T1, PD-1/PD-L1 (Homo sapiens, UniProt Q9NZQ7); assay: PD-1/PD-L1 Homogenous Time-Resolved Fluorescence (HTRF) binding assay; conditions: not given
T1 construct: TVMV protease site linker (C); made in house; host or cells: HEK293T cells
In short: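 HTRF read-out using europium cryptate anti-Ig (1 nM) and APC anti-His (20 nM) on extracellular-domain fusion proteins in dPBS/0.1% BSA/0.05% Tween-20. Inhibitor first incubated 15 min with 10 nM PD-L1-His, followed by 20 nM PD-1-Ig for another 15 min.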

T1 sequence (Q9NZQ7 18-239): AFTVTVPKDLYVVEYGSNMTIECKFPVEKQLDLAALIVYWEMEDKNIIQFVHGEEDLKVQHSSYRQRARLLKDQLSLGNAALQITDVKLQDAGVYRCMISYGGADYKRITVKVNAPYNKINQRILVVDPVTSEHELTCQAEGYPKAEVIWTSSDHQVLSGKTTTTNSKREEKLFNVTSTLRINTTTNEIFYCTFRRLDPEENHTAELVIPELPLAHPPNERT

| SMILES | IC50 [nM] |
| --- | --- |
| CCCC[C@H]1C(=O)N(C)[C@@H](CCCC)C(=O)N[C@@H](CC(C)C)C(=O)N[C@H](C(=O)NCC(N)=O)CSCC(=O)N[C@@H](Cc2ccc(O)cc2)C(=O)N(C)[C@@H](C)C(=O)N[C@@H](CC(N)=O)C(=O)N2CCC[C@H]2C(=O)N[C@@H](CNC(=O)Nc2ccc3ccccc3c2)C(=O)N[C@@H](CC(C)C)C(=O)N2C[C@H](O)C[C@H]2C(=O)N[C@@H](Cc2c[nH]c3ccccc23)C(=O)N[C@@H](CCN)C(=O)N[C@@H](Cc2cn(CC(=O)O)c3ccccc23)C(=O)N1C [Example 3043] ({CH2CO}-Y[NMeA]NP[Dap]([CO-βNA])L[Hyp]W[Dab][Trp(1-CH2COOH)][NMeNle][NMeNle]LCG-NH2; thioether N-14) | 3.2 |

same assay, conditions: PD-L1-His 10 nM pre-incubated with inhibitor, PD-1-Ig 20 nM; read-out: HTRF IC50

| SMILES | IC50 [nM] |
| --- | --- |
| CCCC[C@H]1C(=O)N(C)[C@@H](CCCC)C(=O)N[C@@H](CC(C)C)C(=O)N[C@H](C(=O)NCC(N)=O)CSCC(=O)N[C@@H](Cc2ccc(O)cc2)C(=O)N(C)[C@@H](C)C(=O)N[C@@H](CC(N)=O)C(=O)N2CCC[C@H]2C(=O)N[C@@H](CNC(=S)Nc2c(Cl)cc(Cl)cc2Cl)C(=O)N[C@@H](CC(C)C)C(=O)N2C[C@H](O)C[C@H]2C(=O)N[C@@H](Cc2c[nH]c3ccccc23)C(=O)N[C@@H](CCN)C(=O)N[C@@H](Cc2cn(CC(=O)O)c3ccccc23)C(=O)N1C [Example 1109] ({CH2CO}-Y[NMeA]NP[Dap](X78)L[Hyp]W[Dab][Trp(1-CH2COOH)][NMeNle][NMeNle]LCG-NH2; thioether N-14) | 1.5 |
| CCCC[C@H]1C(=O)N(C)[C@@H](CCCC)C(=O)N[C@@H](CC(C)C)C(=O)N[C@H](C(=O)NCC(N)=O)CSCC(=O)N[C@@H](Cc2ccc(O)cc2)C(=O)N(C)[C@@H](C)C(=O)N[C@@H](CC(N)=O)C(=O)N2CCC[C@H]2C(=O)N[C@@H](CNC(=O)c2cc3ccccc3o2)C(=O)N[C@@H](CC(C)C)C(=O)N2C[C@H](O)C[C@H]2C(=O)N[C@@H](Cc2c[nH]c3ccccc23)C(=O)N[C@@H](CCNC(=O)c2cc3ccccc3o2)C(=O)N[C@@H](Cc2cn(CC(=O)O)c3ccccc23)C(=O)N1C [Example 3036] ({CH2CO}-Y[NMeA]NP[Dap](Benzofuran(2-CO))L[Hyp]W[Dab](Benzofuran(2-CO))[Trp(1-CH2COOH)][NMeNle][NMeNle]LCG-NH2; thioether N-14) | 2.7 |
| CCCC[C@H]1C(=O)N(C)[C@@H](CCCC)C(=O)N[C@@H](CC(C)C)C(=O)N[C@H](C(=O)NCC(N)=O)CSCC(=O)N[C@@H](Cc2ccc(O)cc2)C(=O)N(C)[C@@H](C)C(=O)N[C@@H](CC(N)=O)C(=O)N2CCC[C@H]2C(=O)N[C@@H](CNC(=O)Nc2ccc([N+](=O)[O-])cc2C)C(=O)N[C@@H](CC(C)C)C(=O)N2C[C@H](O)C[C@H]2C(=O)N[C@@H](Cc2c[nH]c3ccccc23)C(=O)N[C@@H](CCN)C(=O)N[C@@H](Cc2cn(CC(=O)O)c3ccccc23)C(=O)N1C [Example 1133] ({CH2CO}-Y[NMeA]NP[Dap]([CO-X27])L[Hyp]W[Dab][Trp(1-CH2COOH)][NMeNle][NMeNle]LCG-NH2; thioether N-14) | 8.4 |
| CCCC[C@H]1C(=O)N(C)[C@@H](CCCC)C(=O)N[C@@H](CC(C)C)C(=O)N[C@H](C(=O)NCC(N)=O)CSCC(=O)N[C@@H](Cc2ccc(O)cc2)C(=O)N(C)[C@@H](C)C(=O)N[C@@H](CC(N)=O)C(=O)N2CCC[C@H]2C(=O)N[C@@H](CNC(=O)Nc2ccc3c(c2)OCCO3)C(=O)N[C@@H](CC(C)C)C(=O)N2C[C@H](O)C[C@H]2C(=O)N[C@@H](Cc2c[nH]c3ccccc23)C(=O)N[C@@H](CCNC(=O)Nc2ccc3c(c2)OCCO3)C(=O)N[C@@H](Cc2cn(CC(=O)O)c3ccccc23)C(=O)N1C [Example 3059] ({CH2CO}-Y[NMeA]NP[Dap]([CO-X71])L[Hyp]W[Dab]([CO-X71])[Trp(1-CH2COOH)][NMeNle][NMeNle]LCG-NH2; thioether N-14) | 3 |
| CCCC[C@H]1C(=O)N(C)[C@@H](CCCC)C(=O)N[C@@H](CC(C)C)C(=O)N[C@H](C(=O)NCC(N)=O)CSCC(=O)N[C@@H](Cc2ccc(O)cc2)C(=O)N(C)[C@@H](C)C(=O)N[C@@H](CC(N)=O)C(=O)N2CCC[C@H]2C(=O)N[C@@H](CNC(=S)Nc2ccc3oc(C)cc3c2)C(=O)N[C@@H](CC(C)C)C(=O)N2C[C@H](O)C[C@H]2C(=O)N[C@@H](Cc2c[nH]c3ccccc23)C(=O)N[C@@H](CCNC(=S)Nc2ccc3oc(C)cc3c2)C(=O)N[C@@H](Cc2cn(CC(=O)O)c3ccccc23)C(=O)N1C [Example 3072] ({CH2CO}-Y[NMeA]NP[Dap](X60)L[Hyp]W[Dab](X60)[Trp(1-CH2COOH)][NMeNle][NMeNle]LCG-NH2; thioether N-14) | 1.5 |
| CCCC[C@H]1C(=O)N(C)[C@@H](CCCC)C(=O)N[C@@H](CC(C)C)C(=O)N[C@H](C(=O)NCC(N)=O)CSCC(=O)N[C@@H](Cc2ccc(O)cc2)C(=O)N(C)[C@@H](C)C(=O)N[C@@H](CC(N)=O)C(=O)N2CCC[C@H]2C(=O)N[C@@H](CNC(=S)Nc2ccc(C3CC3)c3ccccc23)C(=O)N[C@@H](CC(C)C)C(=O)N2C[C@H](O)C[C@H]2C(=O)N[C@@H](Cc2c[nH]c3ccccc23)C(=O)N[C@@H](CCNC(=S)Nc2ccc(C3CC3)c3ccccc23)C(=O)N[C@@H](Cc2cn(CC(=O)O)c3ccccc23)C(=O)N1C [Example 3058] ({CH2CO}-Y[NMeA]NP[Dap](X75)L[Hyp]W[Dab](X75)[Trp(1-CH2COOH)][NMeNle][NMeNle]LCG-NH2; thioether N-14) | 13 |
| CCCC[C@H]1C(=O)N(C)[C@@H](CCCC)C(=O)N[C@@H](CC(C)C)C(=O)N[C@H](C(=O)NCC(N)=O)CSCC(=O)N[C@@H](Cc2ccc(O)cc2)C(=O)N(C)[C@@H](C)C(=O)N[C@@H](CC(N)=O)C(=O)N2CCC[C@H]2C(=O)N[C@@H](CNC(=O)Nc2c(C)cc(C)cc2C)C(=O)N[C@@H](CC(C)C)C(=O)N2C[C@H](O)C[C@H]2C(=O)N[C@@H](Cc2c[nH]c3ccccc23)C(=O)N[C@@H](CCN)C(=O)N[C@@H](Cc2cn(CC(=O)O)c3ccccc23)C(=O)N1C [Example 1066] ({CH2CO}-Y[NMeA]NP[Dap]([CO-X74])L[Hyp]W[Dab][Trp(1-CH2COOH)][NMeNle][NMeNle]LCG-NH2; thioether N-14) | 2.9 |
| CCCC[C@H]1C(=O)N(C)[C@@H](CCCC)C(=O)N[C@@H](CC(C)C)C(=O)N[C@H](C(=O)NCC(N)=O)CSCC(=O)N[C@@H](Cc2ccc(O)cc2)C(=O)N(C)[C@@H](C)C(=O)N[C@@H](CC(N)=O)C(=O)N2CCC[C@H]2C(=O)N[C@@H](CNC(=S)Nc2cc(OC)cc(OC)c2)C(=O)N[C@@H](CC(C)C)C(=O)N2C[C@H](O)C[C@H]2C(=O)N[C@@H](Cc2c[nH]c3ccccc23)C(=O)N[C@@H](CCN)C(=O)N[C@@H](Cc2cn(CC(=O)O)c3ccccc23)C(=O)N1C [Example 1098] ({CH2CO}-Y[NMeA]NP[Dap](X55)L[Hyp]W[Dab][Trp(1-CH2COOH)][NMeNle][NMeNle]LCG-NH2; thioether N-14) | 3.1 |
| CCCC[C@H]1C(=O)N(C)[C@@H](CCCC)C(=O)N[C@@H](CC(C)C)C(=O)N[C@H](C(=O)NCC(N)=O)CSCC(=O)N[C@@H](Cc2ccc(O)cc2)C(=O)N(C)[C@@H](C)C(=O)N[C@@H](CC(N)=O)C(=O)N2CCC[C@H]2C(=O)N[C@@H](CNC(=S)Nc2ccc(-n3cccn3)cc2)C(=O)N[C@@H](CC(C)C)C(=O)N2C[C@H](O)C[C@H]2C(=O)N[C@@H](Cc2c[nH]c3ccccc23)C(=O)N[C@@H](CCN)C(=O)N[C@@H](Cc2cn(CC(=O)O)c3ccccc23)C(=O)N1C [Example 1060] ({CH2CO}-Y[NMeA]NP[Dap](X80)L[Hyp]W[Dab][Trp(1-CH2COOH)][NMeNle][NMeNle]LCG-NH2; thioether N-14) | 1.1 |
